The target in assay [1] is T1, Mu-type opioid receptor (Rattus norvegicus, UniProt P33535). Nature of the assay: Displacement of [3H]- DAGO from opioid receptor mu in rat brain membrane. The format is cell membranes. On the technique in general: In a radioligand displacement assay an active substance lowers the binding of a labelled ligand.
Assay [2] addresses T2, Delta-type opioid receptor (Rattus norvegicus, UniProt P33533). The experiment in a line: Displacement of [3H]DSLET from delta opioid receptor in rat brain membrane. It counts as cell membranes.
For assay [3], the target named is T2, Delta-type opioid receptor. Nature of the assay: Displacement of [3H]- DPDPE from delta opioid receptor in rat brain membrane. The format is cell membranes.
Assay [4] addresses T3, Mu-type opioid receptor (Cavia porcellus, UniProt P97266). Nature of the assay: Inhibition of opioid receptor mu in guinea pig ileum (GPI). The format is tissue-based.
In assay [5] the target is T4, Delta-type opioid receptor (Mus musculus, UniProt P32300). Nature of the assay: In vitro opioid receptor delta mediated mouse vas deferens (MVD) assay. It counts as tissue-based.
T4 sequence (P32300 whole entry): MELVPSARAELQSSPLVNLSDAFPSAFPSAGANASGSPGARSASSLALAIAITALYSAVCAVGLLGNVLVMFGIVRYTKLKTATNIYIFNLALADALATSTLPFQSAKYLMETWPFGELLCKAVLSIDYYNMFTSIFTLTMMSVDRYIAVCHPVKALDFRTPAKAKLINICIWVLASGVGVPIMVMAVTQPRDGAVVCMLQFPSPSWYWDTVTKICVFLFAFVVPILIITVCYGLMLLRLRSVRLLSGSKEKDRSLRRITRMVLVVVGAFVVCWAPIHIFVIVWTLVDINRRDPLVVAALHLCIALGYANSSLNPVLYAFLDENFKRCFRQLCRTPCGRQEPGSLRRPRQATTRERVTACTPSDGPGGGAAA
A short description of assay [6]: (§1) IC50 ratio is GPI/MVD. The format is functional.
Assay [7] concerns the target T1, Mu-type opioid receptor. The experiment in a line: Opioid receptor mu 1 binding affinity in rat brain membrane preparations by the displacement of [3H]- DAGO. It counts as cell membranes.
In assay [8] the target is T2, Delta-type opioid receptor. Nature of the assay: Opioid receptor binding affinity in rat brain membrane preparations by the displacement of [3H]DSLET (Opioid receptor delta 1-selective radioligand). The format is cell membranes.
Assay [9] has as its target T4, Delta-type opioid receptor. The experiment in a line: Compound is tested in vitro in mouse vas deferens (MVD) assay mediated by Opioid receptor delta 1. The format is tissue-based.
Assay [10] deals with T3, Mu-type opioid receptor. The experiment in a line: Compound is tested in vitro in guinea pig ileum (GPI) assay mediated by Opioid receptor mu 1. The format is tissue-based.
Assay [11] is described as follows: IC50 ratio is [3H]- DAGO/[3H]-DSLET.
Assay [12] deals with T2, Delta-type opioid receptor. Nature of the assay: Opioid receptor binding affinity in rat brain membrane preparations by the displacement of [3H]- DPDPE (Opioid receptor delta 1-selective radioligand). It counts as cell membranes.
The nature of assay [13]: as §1.

Non-standard residues stand in square brackets, D forms with d. Residues, ends and D or L forms follow the SMILES beside them. Abu = CC[C@H](N)C(=O)O

Broadly, the IC50 is the point on the concentration scale where inhibition reaches its midpoint. A higher IC50 goes with a need for much substance.

T2 sequence (P33533 whole entry): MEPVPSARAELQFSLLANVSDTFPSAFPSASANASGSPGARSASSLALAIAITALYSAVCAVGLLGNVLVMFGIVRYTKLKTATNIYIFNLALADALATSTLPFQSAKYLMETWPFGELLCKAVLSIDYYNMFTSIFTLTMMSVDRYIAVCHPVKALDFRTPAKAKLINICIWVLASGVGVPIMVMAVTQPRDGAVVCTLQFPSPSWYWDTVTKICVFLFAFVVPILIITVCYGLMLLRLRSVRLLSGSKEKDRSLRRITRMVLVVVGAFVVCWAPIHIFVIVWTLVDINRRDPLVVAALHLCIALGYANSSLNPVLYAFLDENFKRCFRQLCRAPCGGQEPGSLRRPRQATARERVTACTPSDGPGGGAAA
T3 sequence (P97266 whole entry): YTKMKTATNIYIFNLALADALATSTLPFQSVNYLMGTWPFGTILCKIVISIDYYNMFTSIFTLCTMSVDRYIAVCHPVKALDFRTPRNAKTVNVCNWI
T1 sequence (P33535 whole entry): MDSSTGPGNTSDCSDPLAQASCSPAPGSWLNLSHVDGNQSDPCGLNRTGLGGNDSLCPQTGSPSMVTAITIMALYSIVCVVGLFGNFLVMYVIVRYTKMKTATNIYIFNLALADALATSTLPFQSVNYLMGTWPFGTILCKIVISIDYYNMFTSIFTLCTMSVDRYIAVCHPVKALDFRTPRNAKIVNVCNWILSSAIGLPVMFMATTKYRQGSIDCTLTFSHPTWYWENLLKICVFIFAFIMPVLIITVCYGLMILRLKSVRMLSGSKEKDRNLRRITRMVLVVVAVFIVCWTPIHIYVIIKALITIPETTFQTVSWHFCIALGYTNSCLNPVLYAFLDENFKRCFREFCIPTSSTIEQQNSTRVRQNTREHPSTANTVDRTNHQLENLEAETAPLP

With `CC[C@H](NC(=O)[C@H](CCSC)NC(=O)[C@H](CC(C)C)NC(=O)[C@H](Cc1cnc[nH]1)NC(=O)[C@H](Cc1ccccc1)NC(=O)[C@H](CCSC)NC(=O)[C@@H](N)Cc1ccc(O)cc1)C(N)=O` (H-YMFHLM[Abu]-NH2), the IC50 on Mu-type opioid receptor [1] turned out to be 360 nM; in assay [2] it was 18 nM; in assay [3], 7.4 nM; at Mu-type opioid receptor [4] it was 300 nM; in [5], 1.5 nM.

H-YMFFLMD-NH2: the IC50 amounted to 450 nM at Mu-type opioid receptor [1]; 15 nM in [2]; 11 nM in [3]; 75 nM against Mu-type opioid receptor [4]; 1.6 nM in [5]. Further, the Ratio in assay [6] turned out to be 47.

On to H-YMFHLMD-OH, for which the IC50 was 1500 nM at Mu-type opioid receptor [1]; 4.5 nM in assay [2]; 2.4 nM in assay [3]; 6000 nM against Mu-type opioid receptor [4]; 1.3 nM in [5].

On to `CC[C@H](NC(=O)[C@H](CCSC)NC(=O)[C@H](CC(C)C)NC(=O)[C@H](Cc1c[nH]cn1)NC(=O)[C@H](Cc1ccccc1)NC(=O)[C@H](CCSC)NC(=O)[C@@H](N)Cc1ccc(O)cc1)C(N)=O` (H-YMFHLM[Abu]-NH2), for which, in assay [6], the Ratio came to 200.

In the case of `C[C@H](NC(=O)[C@@H](N)Cc1ccc(O)cc1)C(=O)N[C@@H](Cc1ccccc1)C(=O)N[C@@H](CC(=O)O)C(N)=O` (H-YAFD-NH2), the IC50 on Mu-type opioid receptor [1] came to 100 nM; in assay [2] it was 960 nM; against Mu-type opioid receptor [4], 160 nM; in [5], 1000 nM.

As for H-YMFDLMD-OH, the IC50 is > 30000 nM at Mu-type opioid receptor [7]; 80 nM in [8]; 380 nM in assay [9]; > 15000 nM against Mu-type opioid receptor [10]; 55 nM in [12]. Besides, the figures for the Ratio in assay [11] and in assay [13] were > 375 and > 40, respectively.

Regarding `CC(C)[C@H](NC(=O)[C@H](CC(=O)O)NC(=O)[C@H](Cc1ccccc1)NC(=O)[C@H](C)NC(=O)[C@@H](N)Cc1ccc(O)cc1)C(=O)N[C@H](C(=O)NCC(N)=O)C(C)C`, the IC50 at Mu-type opioid receptor [1] worked out at 910 nM; in assay [2] it was 1.5 nM; in [3], 1.1 nM; on Mu-type opioid receptor [4], 420 nM.

Turning to H-YMFYLMD-NH2, the IC50 at Mu-type opioid receptor [1] stood at 158 nM; in assay [2] it was 9.1 nM; in assay [3], 5.9 nM; at Mu-type opioid receptor [4], 100 nM; in [5] it was 1.02 nM. In addition, the Ratio in [6] came out at 100.

As to H-YMFKLMD-NH2, the IC50 amounted to 6000 nM at Mu-type opioid receptor [7]; 550 nM in assay [8]; 1000 nM in assay [9]; 7500 nM against Mu-type opioid receptor [10]; 380 nM in assay [12]. In addition, the Ratio worked out at 11 in [11] and 7.5 in assay [13].

`CC(C)[C@H](NC(=O)[C@H](CCC(=O)O)NC(=O)[C@H](Cc1ccccc1)NC(=O)[C@H](C)NC(=O)[C@@H](N)Cc1ccc(O)cc1)C(=O)N[C@H](C(=O)NCC(N)=O)C(C)C`: the IC50 in assay [2] turned out to be 3.8 nM; in assay [3], 3.6 nM; at Mu-type opioid receptor [4], 5200 nM.

Turning to H-YAFDV-NH2, the IC50 at Mu-type opioid receptor [1] was found to be 640 nM; in [2], 99 nM; against Mu-type opioid receptor [4], 650 nM; in [5], 220 nM.

In the case of H-YMFGLMD-NH2, the IC50 at Mu-type opioid receptor [7] turned out to be 161 nM; in assay [8] it was 14 nM; in [9], 1.65 nM; against Mu-type opioid receptor [10] it was 100 nM; in assay [12] it was 8 nM. In addition, the figures for the Ratio in assay [11] and in assay [13] were 11.5 and 62, respectively.

With H-YAFQVVG-NH2, the IC50 was found to be 280 nM on Mu-type opioid receptor [7], 3.8 nM in assay [8], 1.51 nM in [9] and 280 nM against Mu-type opioid receptor [10]. Besides, the Ratio in assay [11] was determined as 73; in [13] it was 185.

For the compound `CC(C)[C@H](NC(=O)[C@H](CCC(=O)O)NC(=O)[C@H](Cc1ccccc1)NC(=O)[C@H](C)NC(=O)[C@@H](N)Cc1ccc(O)cc1)C(=O)N[C@H](C(=O)NCC(=O)O)C(C)C` [DELTORPHINE II], the IC50 in assay [2] turned out to be 184 nM; on Mu-type opioid receptor [4], 9000 nM; in [5] it was 5.55 nM.

As for `C[C@@H](NC(=O)[C@@H](N)Cc1ccc(O)cc1)C(=O)N[C@@H](Cc1ccccc1)C(=O)NCC(=O)N[C@@H](Cc1ccc(O)cc1)C(=O)N1CCC[C@H]1C(=O)N[C@@H](CO)C(N)=O` [DERMORPHIN], the values for the IC50 at Mu-type opioid receptor [1] and against Mu-type opioid receptor [4] were 3.2 nM and 1.41 nM, respectively.

H-YAFDVV-NH2: the IC50 on Mu-type opioid receptor [1] amounted to 700 nM; in assay [2] it was 3.9 nM; on Mu-type opioid receptor [4], 320 nM; in assay [5], 7.5 nM.

Take H-YMFHLMN-NH2 [listing 1 of 2 here]: the Ratio in [6] was determined as 30.

As to H-YMFHLMN-OH, the IC50 at Mu-type opioid receptor [1] stood at 660 nM; in assay [2], 22 nM; in assay [3], 16 nM; against Mu-type opioid receptor [4], 350 nM; in assay [5] it was 9 nM. Further, in assay [6], the Ratio is 39.

With `CSCC[C@H](NC(=O)[C@H](CC(C)C)NC(=O)[C@H](Cc1cnc[nH]1)NC(=O)[C@H](Cc1ccccc1)NC(=O)[C@@H](CCSC)NC(=O)[C@@H](N)Cc1ccc(O)cc1)C(=O)N[C@@H](CC(=O)O)C(N)=O` (H-Y[dM]FHLMD-NH2), the IC50 at Mu-type opioid receptor [1] worked out at 1200 nM; in assay [2], 9 nM; in assay [3], 6.1 nM; against Mu-type opioid receptor [4], 1900 nM; in assay [5], 1.3 nM.

In the case of H-YMFHLMN-NH2 [listing 2 of 2 here], the half-maximal inhibitory concentration (IC50) at Mu-type opioid receptor [1] is 380 nM; in assay [2], 20 nM; in assay [3] it was 18 nM; at Mu-type opioid receptor [4] it was 245 nM; in assay [5], 8 nM.

`CC[C@H](NC(=O)[C@@H](NC(=O)CNC(=O)[C@H](Cc1ccccc1)NC(=O)[C@H](C)NC(=O)[C@@H](N)Cc1ccc(O)cc1)C(C)C)C(=O)N[C@@H](CC(=O)O)C(N)=O` (H-YAFGV[Abu]D-NH2): the IC50 is 130 nM at Mu-type opioid receptor [7], 29.5 nM in assay [8], 11.1 nM in assay [9] and 130 nM on Mu-type opioid receptor [10]. For the same compound, in assay [13], the Ratio was determined as 12.

The values above are taken from ChEMBL document CHEMBL1125696, “Synthesis and structure-activity relationships of deltorphin analogues” (J Med Chem, 1991).
